Format in all cases: cell-based, Candida albicans
The subject of test [1] is C. albicans (ATTC 10231). Kind of test: microdilution viability assay (plate assay, CFU count). The conditions noted are these: 1 mM PPB, 60 min at 30° C., CFUs counted. As to the method: C. albicans (ATTC 10231), cultured aerobically at 30° C. on Sabouraud dextrose agar plates (SDA, Oxoid, Hampshire, UK) was suspended in 25 ml of Sabouraud dextrose broth in a 100 ml erlenmeyer flask. After 20 h of incubation at 30° C., 1 ml from this suspension was sub-cultured for 1-2 h in 20 ml of Sabouraud dextrose broth, to obtain a mid-log phase culture. Cells were washed twice in 1 mM potassium phosphate (PPB) or 5 mM Tris (pH 7.2), and resuspended in the same buffer to a cell density of 2 McFarland (McF) (approximately 10^7 cells/ml). The effects of PHS and Hst5 on the viability of C. albicans were determined in a microdilution viability assay. 50 μl aliquots from a mid-log phase culture of C. albicans were incubated with equal volumes of either peptide or PHS solutions (0.3 to 100 μM) and incubated at 30° C. for 60 min. The incubation mixtures were appropriately diluted (200- to 500-fold) in PBS and 25 μl aliquots were plated on SDA. After 48 h incubation at 30° C. the numbers of CFUs were counted. All experiments were repeated at least three times in duplo. The effect of PHS-treatment on the viability of C. albicans was determined in a micro-dilution viability assay, at the concentration range 0-500 μM (FIG. 1). For comparison the effect of treatment with Hst5 (0-50 μM) is shown. […]

Another test concerns C. albicans. Kind of test: synergism between histatin 5 and PHS: PI fluorescence after PHS preincubation, energy-rich (NaCl) or energy-depleted (NaN3). The following applies: for extent of additional increase in PI-fluorescence on addition of Hst5: 25 μM PHS preincubation. As to the method:
C. albicans (ATTC 10231), cultured aerobically at 30° C. on Sabouraud dextrose agar plates (SDA, Oxoid, Hampshire, UK) was suspended in 25 ml of Sabouraud dextrose broth in a 100 ml erlenmeyer flask. After 20 h of incubation at 30° C., 1 ml from this suspension was sub-cultured for 1-2 h in 20 ml of Sabouraud dextrose broth, to obtain a mid-log phase culture. Cells were washed twice in 1 mM potassium phosphate (PPB) or 5 mM Tris (pH 7.2), and resuspended in the same buffer to a cell density of 2 McFarland (McF) (approximately 10^7 cells/ml). Cells were suspended in 5 mM Tris buffer (pH 7.2), supplemented with either 5 mM NaCl or 5 mM NaN3. These suspensions were subsequently incubated with 0, 10, 50 and 100 μM PHS dissolved in 5 mM Tris buffer. After 60 minutes of incubation at 30° C., PI was added, and subsequently dilution series of Hst 5 in the corresponding buffer were added. Final concentration of PI was 10 μM, final concentrations of Hst5 ranged between 0 and 50 μM, final cell density was 10^7 cells/ml and final PHS concentrations were 0, 5, 25 and 50 μM. After 0, 20, 40 and 60 minutes the PI fluorescence was monitored at excitation and emission wavelengths of 544 and 620 nm, respectively, in a Fluostar Galaxy microplate fluorimeter (BMFG Labtechnologies, Offenburg, Germany).

Test [2] relates to C. albicans (ATTC 10231). Kind of test: membrane-disruptive activity, propidium iodide fluorescence (PI assay). The following applies: 1 mM PPB, after 15 and 60 minutes. As to the method: C. albicans (ATTC 10231), cultured aerobically at 30° C. on Sabouraud dextrose agar plates (SDA, Oxoid, Hampshire, UK) was suspended in 25 ml of Sabouraud dextrose broth in a 100 ml erlenmeyer flask. After 20 h of incubation at 30° C., 1 ml from this suspension was sub-cultured for 1-2 h in 20 ml of Sabouraud dextrose broth, to obtain a mid-log phase culture. Cells were washed twice in 1 mM potassium phosphate (PPB) or 5 mM Tris (pH 7.2), and resuspended in the same buffer to a cell density of 2 McFarland (McF) (approximately 10^7 cells/ml).
Membrane-disruptive activity of Hst5 and phytosphingosine (PHS) was determined by monitoring the fluorescence enhancement of propidium iodide (Invitrogen, Breda, The Netherlands) in Hst5- or PHS treated cells. The membrane impermeant propidium iodide (PI) only enters membrane-compromised cells, after which the fluorescence of this probe is enhanced 20-30-fold due to its binding to nucleic acids.
Cells obtained by the method described above were suspended in 1 mM PPB buffer (pH 7.2) supplemented with PI (final concentration 10 μM) and subsequently added to two-fold serial dilutions of Hst5 (50 μM down to 0.045 μM) or PHS (500 down to 0.5 μM). Final cell density in the assay was 1 McF. […]

In the case of `CCCCCCCCCCCCCC[C@@H](O)[C@@H](O)[C@@H](N)CO` [PHS, phytosphingosine], the “concentration at which complete killing was reached” value in the test with C. albicans (ATTC 10231) [1] came out at 250 µM. Further, the “PI fluorescence induced by PHS preincubation alone” value in the test on C. albicans (25 μM PHS in the presence of NaN3, vs control with NaCl) is “induces an increase in PI fluorescence, comparable to that of the control”. For the same compound, the “effect of PHS pretreatment on sensitivity of C. albicans to Hst5” value in the test with C. albicans (non-lethal dosages PHS, in particular energy-depleted conditions) was “increases its sensitivity to Hst5”. Moreover, the “effect of PHS preincubation on Hst5-mediated influx of PI” value with C. albicans (preincubation with 25 or 50 μM PHS, NaCl, 6.1 μM Hst5, relative to 0 μM PHS) is listed as “instantaneously accelerates the Hst5-mediated influx of PI”.
Turning to “histatin 5 (DSHAKRHHGYKRKFHEKHHSHRGY) [Hst5]”, the “concentration at which complete killing was reached” value in the test on C. albicans (ATTC 10231) [1] was 10 µM. In addition, the “concentration needed to induce uptake of PI, Hst5 compared with PHS” value with C. albicans (ATTC 10231) [2] is given as “induced the uptake of PI at much lower concentrations”. Further, the entries for the “extent of additional increase in PI-fluorescence on addition of Hst5” value in the test with C. albicans (NaCl control (energy-rich)) and in the test on C. albicans (NaN3 (energy-depleted)) were 1000 fluorescence units and “approx 500 fluorescence units”, respectively. In addition, the “effect of energy-depletion on sensitivity of C. albicans to the substance” value with C. albicans (5 mM NaN3 vs 5 mM NaCl in 5 mM Tris, t=0 and t=20 min) is reported as “energy-depletion protects C. albicans against Hst5”. In the test on C. albicans (after pre-incubation with 25 μM PHS, NaCl, t=0), the “lowest Hst5 concentration with immediate additional increase in PI fluorescence” value was determined as 0.75 µM.

(Values after patent US20110045073A1, “METHODS AND COMPOSITIONS OF SPHINGOLIPID FOR PREVENTING AND TREATING MICROBIAL INFECTIONS” (priority 2008, published 2011).)
